Assay results from patent US11666589B2, “Pivarubicin and benzarubicin compositions” (Paradox Pharmaceuticals, Inc., priority 2020, dated 2023).

Tests used:
[1] = system: 32D.3, J774.2 and 293 cells; experiment: Biotransformation to AD 288 after uptake into cells; type: in vitro ADME; conditions: 8 hours after drug uptake into cells
From the text: (§1) Intracellular drug was extracted and analyzed by fluorescence HPLC as described previously.

[2] = system: 32D.3 murine myeloid cells; experiment: Drug biotransformation analysis (HPLC of intracellular drug) in 32D.3 cells; type: in vitro ADME
From the text: as §1

[3] = system: 293 embryonic human kidney cells; experiment: Drug biotransformation analysis (HPLC of intracellular drug) in 293 cells; type: in vitro ADME
From the text: as §1

[4] = system: J774.2 murine macrophage-like cells; experiment: Drug biotransformation analysis (HPLC of intracellular drug) in J774.2 cells; type: in vitro ADME
From the text: as §1

CEM/VLB-100 = conditions: CEM/VLB-100, selecting drug; cited from earlier work
CEM/VLB-10 = conditions: CEM/VLB-10, selecting drug; cited from earlier work

SMILES	biotransformation to N-benzyladriamycin (AD 288) [1]	% Parent Compound ([2]; 32D.3, 1 hr, 1 μM drug, 37° C.) [%]	% Parent Compound ([2]; 32D.3, 8 hr (1 hr drug + 7 hours drug-free medium)) [%]	% Parent Compound ([3]; 293, 1 hr, 1 μM drug, 37° C.) [%]	% Parent Compound ([3]; 293, 8 hr (1 hr drug + 7 hours drug-free medium)) [%]	% Parent Compound ([4]; J774.2, 1 hr, 1 μM drug, 37° C.) [%]	% Parent Compound ([4]; J774.2, 8 hr (1 hr drug + 7 hours drug-free medium)) [%]	resistance (CEM/VLB-100) [fold]	resistance (CEM/VLB-10) [fold]
CCCCC(=O)OCC(=O)[C@]1(O)Cc2c(O)c3c(c(O)c2[C@@H](O[C@H]2C[C@H](NCc4ccccc4)[C@H](O)[C@H](C)O2)C1)C(=O)c1c(OC)cccc1C3=O [AD 198, N-Benzyladriamycin-14-valerate]	approximately 50%	90	56	80	50	90	50		
CC[C@]1(O)C[C@@H]2CN(CCc3c([nH]c4ccccc34)[C@@](C(=O)OC)(c3cc4c(cc3OC)N(C)[C@H]3[C@@](O)(C(=O)OC)[C@H](OC(C)=O)[C@]5(CC)C=CCN6CC[C@]43[C@@H]65)C2)C1 [vinblastine]								269	10.6
